Source: patent publication US6552080B1, “Fungicidal compounds having a fluorovinyl-or fluoropropenyl-oxyphenyloxime moiety and process for the preparation thereof” (Korea Research Institute of Chemical Technology, priority 1999, dated 2003)
Like-named read-outs stand apart in the source and are kept apart here.

Experiments:
Erysiphae graminis = assay: Fungicidal activity against Barley Powdery Mildew (BPM) disease; format: in vivo; details: for BPM (Fungicidal Activities, C.V.): Barley Powdery Mildew
[1] = test system: Pyricularia oryzae Carvara KA301; format: in vivo; details: for RCV (Fungicidal Activities, C.V.): Rice Blast
Rhizoctonia solani AG-1 = assay: Fungicidal activity against Rice Sheath Blight (RSB) disease; details: for RSB (Fungicidal Activities, C.V.): Rice Sheath Blight
Method: To examine fungicidal activity of the compounds of the present invention, each of the compounds listed in Table 3 and 4 was dissolved in 10% acetone to a concentration of 250 ppm, and Tween-20 was added thereto to a concentration of 250 or 500 ppm. 50 ml of the resulting solution was sprayed on leaves of a host plant. The plant was kept at room temperature for 24 hours to let the solvent evaporate, and then, a pathogenic fungus was inoculated thereonto. The plant was held in a humidity chamber for 24 hours, transferred to an plant growth room kept at 20 to 27° C. and a relative humidity of 60 to 80% and kept to induce disease. […] This procedure was repeated twice for each test. 10% Acetone solution containing 250 ppm of Tween-20 was used as a control.
The fungicidal activity of the compound of the present invention is repressed by a control value (C.V.) calculated as; [formula]
Rhizoctonia solani AG-1 was cultured on a PDA medium (potato 200 g, dextrose 20 g, agar 20 g and distilled water 1 ? for 3 days and the agar disc(diameter 0.6 cm) was inoculated and cultured on sterilized wheat bran medium in a 1 L bottle at 26 to 28° C. for 7 days. A mycelial mass was ground using a homogenizer, inoculated uniformly on soil of a pot wherein a Nakdong rice plant having 2 or 3 leaves and an height of 5 cm grew, and kept in humidity polyvinyl chamber for 5 days to induce RSB. L.A. on a leaf sheath was measured to calculate an C.V.

Botrytis cinerae = assay: Fungicidal activity against Cucumber Gray Mold Rot (CGM) disease; format: in vivo; details: for CGM (Fungicidal Activities, C.V.): Cucumber Gray Mold Rot, concentration 50 ppm; for Fungicidal Activities CGM (C.V.): 50 ppm
Method: Botrytis cinerae, which was isolated from cucumber infected thereby, was inoculated on a PDA agar medium and cultured under a 12L/12D cycle at 25° C. for 15 days to form spore. The spores were scraped, filtered through a gauze and then suspended in potato dextrose liquid medium at a concentration of 1×10^6 spore/ml. The spore suspension was sprayed on a cucumber plant having one leaf. The cucumber plant was held in a humidified room at 20° C. for 3 days. L.A. on a leaf was measured to calculate an C.V.

Puccinia recondita = assay: Fungicidal activity against Wheat Leaf Rust (WLR) disease; format: in vivo; details: for WLR (Fungicidal Activities, C.V.): Wheat Leaf Rust
Phytophthora infestans = format: in vivo; details: for TLB (Fungicidal Activities, C.V.): Tomato Late Blight

| Structure (SMILES) | BPM (Fungicidal Activities, C.V.) (Erysiphae graminis; concentration 2 ppm) [%] | BPM (Fungicidal Activities, C.V.) (Erysiphae graminis; concentration 10 ppm) [%] | BPM (Fungicidal Activities, C.V.) (Erysiphae graminis; concentration 50 ppm) [%] | RCV (Fungicidal Activities, C.V.) ([1]; concentration 2 ppm) [%] | RCV (Fungicidal Activities, C.V.) ([1]; concentration 10 ppm) [%] | RCV (Fungicidal Activities, C.V.) ([1]; concentration 50 ppm) [%] | RSB (Fungicidal Activities, C.V.) (Rhizoctonia solani AG-1; concentration 50 ppm) [%] | CGM (Fungicidal Activities, C.V.) (Botrytis cinerae) [%] | WLR (Fungicidal Activities, C.V.) (Puccinia recondita; concentration 2 ppm) [%] | WLR (Fungicidal Activities, C.V.) (Puccinia recondita; concentration 10 ppm) [%] | WLR (Fungicidal Activities, C.V.) (Puccinia recondita; concentration 50 ppm) [%] | TLB (Fungicidal Activities, C.V.) (Phytophthora infestans; concentration 50 ppm) [%] | Fungicidal Activities BPM (C.V.) (Erysiphae graminis; 2 ppm) [%] | Fungicidal Activities BPM (C.V.) (Erysiphae graminis; 50 ppm) [%] | Fungicidal Activities RCV (C.V.) ([1]; 2 ppm) [%] | Fungicidal Activities RCV (C.V.) ([1]; 50 ppm) [%] | Fungicidal Activities RSB (C.V.) (Rhizoctonia solani AG-1; 2 ppm) [%] | Fungicidal Activities RSB (C.V.) (Rhizoctonia solani AG-1; 50 ppm) [%] | Fungicidal Activities CGM (C.V.) (Botrytis cinerae) [%] | RSB (Fungicidal Activities, C.V.) (Rhizoctonia solani AG-1; concentration 2 ppm) [%] | also measured |
| --- | --- | --- | --- | --- | --- | --- | --- | --- | --- | --- | --- | --- | --- | --- | --- | --- | --- | --- | --- | --- | --- |
| COC=C(C(=O)OC)c1ccccc1CON=Cc1cccc(OC(F)=Cc2ccc(C)cc2)c1 [Compound 3] | 86 | 99 | 100 | 0 | 80 | 100 | 60 | 46 | 96 | 98 | 100 | 84 |  |  |  |  |  |  |  |  |  |
| CON=C(C(=O)OC)c1ccccc1CON=C(C)c1cccc(OC(F)=C(c2ccc(Br)cc2)C(F)(F)F)c1 [Compound 187] |  |  |  |  |  |  |  |  |  |  |  |  | 97 | 98 | 97 | 83 | 20 | 85 | 0 |  | Fungicidal Activities WLR (C.V.) (Puccinia recondita; 2 ppm): 95%; Fungicidal Activities WLR (C.V.) (Puccinia recondita; 50 ppm): 100%; Fungicidal Activities TLB (C.V.) (Phytophthora infestans; 2 ppm): 25%; Fungicidal Activities TLB (C.V.) (Phytophthora infestans; 50 ppm): 0% |
| COC=C(C(=O)OC)c1ccccc1CON=C(C)c1cccc(OC(F)=C(c2cc(C)cc(C)c2)C(F)(F)F)c1 [Compound 154] | 68 | 98 | 100 |  |  | 16 | 90 | 58 | 73 | 96 | 98 | 12 |  |  |  |  |  |  |  | 25 | RSB (Fungicidal Activities, C.V.) (Rhizoctonia solani AG-1; concentration 10 ppm): 35% |
| COC=C(C(=O)OC)c1ccccc1CON=C(C)c1cccc(OC(F)=C(c2cccc(C)c2)C(F)(F)F)c1 [Compound 151] | 98 | 100 | 100 | 93 | 99 | 100 | 95 | 24 | 86 | 95 | 100 | 12 |  |  |  |  |  |  |  | 35 | RSB (Fungicidal Activities, C.V.) (Rhizoctonia solani AG-1; concentration 10 ppm): 55% |
| COC=C(C(=O)OC)c1ccccc1CON=C(C)c1cccc(OC(F)=Cc2ccc(OC)cc2)c1 [Compound 48] | 100 | 100 | 100 | 41 | 96 | 100 | 75 | 64 | 99 | 100 | 100 | 95 |  |  |  |  |  |  |  |  |  |
| CNC(=O)C(=NOC)c1ccccc1CON=Cc1cccc(OC(F)=Cc2cccc(C)c2)c1 [Compound 31] | 8 |  | 100 | 97 |  | 100 | 52 | 25 | 83 |  | 100 | 8 |  |  |  |  |  |  |  |  |  |
| CCOc1ccc(C(=C(F)Oc2cccc(C=NOCc3ccccc3C(=NOC)C(=O)NC)c2)C(F)(F)F)cc1 [Compound 144] | 0 |  | 95 | 88 |  | 96 | 47 | 0 |  |  | 86 | 0 |  |  |  |  |  |  |  |  |  |
| CON=C(C(=O)OC)c1ccccc1CON=C(C)c1cccc(OC(F)=C(c2ccc3c(c2)OCO3)C(F)(F)F)c1 [Compound 190] |  |  |  |  |  |  |  |  |  |  |  |  | 91 | 100 | 66 | 93 | 15 | 65 | 0 |  | Fungicidal Activities WLR (C.V.) (Puccinia recondita; 2 ppm): 93%; Fungicidal Activities WLR (C.V.) (Puccinia recondita; 50 ppm): 100%; Fungicidal Activities TLB (C.V.) (Phytophthora infestans; 2 ppm): 0%; Fungicidal Activities TLB (C.V.) (Phytophthora infestans; 50 ppm): 0% |
| CON=C(C(=O)OC)c1ccccc1CON=Cc1cccc(OC(F)=Cc2ccc(C)cc2)c1 [Compound 25] | 93 |  | 100 | 66 |  | 98 | 40 | 9 | 95 |  | 100 | 99 |  |  |  |  |  |  |  | 15 | TLB (Fungicidal Activities, C.V.) (Phytophthora infestans; concentration 2 ppm): 75% |
| CON=C(C(=O)OC)c1ccccc1CON=C(C)c1cccc(OC(F)=Cc2ccc(C)c(C)c2)c1 [Compound 67] | 99 | 100 | 100 | 100 | 100 | 100 | 100 | 37 | 99 | 100 | 100 | 0 |  |  |  |  |  |  |  | 10 | RSB (Fungicidal Activities, C.V.) (Rhizoctonia solani AG-1; concentration 10 ppm): 43% |
| CCc1ccc(C=C(F)Oc2cccc(C(C)=NOCc3ccccc3C(=NOC)C(=O)NC)c2)cc1 [Compound 79] | 100 |  | 100 | 99 |  | 100 | 65 | 80 | 98 |  | 100 | 82 |  |  |  |  |  |  |  | 35 | TLB (Fungicidal Activities, C.V.) (Phytophthora infestans; concentration 2 ppm): 43% |
| CON=C(C(=O)OC)c1ccccc1CON=C(C)c1cccc(OC(F)=C(c2ccc(F)cc2)C(F)(F)F)c1 [Compound 183] |  |  |  |  |  |  |  |  |  |  |  |  | 100 | 100 | 99 | 100 | 20 | 100 | 56 |  | Fungicidal Activities WLR (C.V.) (Puccinia recondita; 2 ppm): 99%; Fungicidal Activities WLR (C.V.) (Puccinia recondita; 50 ppm): 100%; Fungicidal Activities TLB (C.V.) (Phytophthora infestans; 2 ppm): 12%; Fungicidal Activities TLB (C.V.) (Phytophthora infestans; 50 ppm): 50% |
| COC=C(C(=O)OC)c1ccccc1CON=Cc1cccc(OC(F)=C(c2cccc(C)c2)C(F)(F)F)c1 [Compound 104] | 80 | 99 | 100 | 25 | 75 | 96 | 45 | 0 | 66 | 93 | 97 | 0 |  |  |  |  |  |  |  |  |  |
| CON=C(C(=O)OC)c1ccccc1CON=C(C)c1cccc(OC(F)=C(c2cccc(C)c2)C(F)(F)F)c1 [Compound 174] |  |  |  |  |  |  |  |  |  |  |  |  | 99 | 100 | 86 | 96 | 25 | 60 | 0 |  | Fungicidal Activities WLR (C.V.) (Puccinia recondita; 2 ppm): 90%; Fungicidal Activities WLR (C.V.) (Puccinia recondita; 50 ppm): 100%; Fungicidal Activities TLB (C.V.) (Phytophthora infestans; 50 ppm): 0% |
| CON=C(C(=O)OC)c1ccccc1CON=C(C)c1cccc(OC(F)=C(c2ccccc2)C(F)(F)F)c1 [Compound 173] |  |  |  |  |  |  |  |  |  |  |  |  | 99 | 100 | 93 | 97 | 30 | 100 | 25 |  | Fungicidal Activities WLR (C.V.) (Puccinia recondita; 2 ppm): 99%; Fungicidal Activities WLR (C.V.) (Puccinia recondita; 50 ppm): 100%; Fungicidal Activities TLB (C.V.) (Phytophthora infestans; 50 ppm): 20% |
| CON=C(C(=O)OC)c1ccccc1CON=C(C)c1cccc(OC(F)=Cc2cccc(OC)c2)c1 [Compound 71] | 100 |  | 100 | 100 |  | 100 | 100 | 25 | 98 |  | 100 | 50 |  |  |  |  |  |  |  | 35 | TLB (Fungicidal Activities, C.V.) (Phytophthora infestans; concentration 2 ppm): 25% |
